The text below walks through data of PubChem BioAssay AID1322 (NMMLSC, 2008).

Molecules are shown by their SMILES. Activity calls are given as the source filed them. How the calls were made is not given here.

The target in this test is Bcl-2-like protein 1 (Homo sapiens) (UniProt Q07817). As to the kind of experiment: Bim-Bcl-XL interaction inhibitors, potency, dose response, biochemical, multiplexed, bead flow cytometry, human Bcl-XL (AID 1322). On inhibition: test concentration not given here. The settings on record: Bead-based flow cytometry, Bim peptide-Bcl-XL binding, MCF; for inhibition: active compounds read high. (In flow cytometry, cells or beads pass a laser one at a time.)
Sequence of Bcl-2-like protein 1 (Homo sapiens) (Q07817 whole entry, looked up): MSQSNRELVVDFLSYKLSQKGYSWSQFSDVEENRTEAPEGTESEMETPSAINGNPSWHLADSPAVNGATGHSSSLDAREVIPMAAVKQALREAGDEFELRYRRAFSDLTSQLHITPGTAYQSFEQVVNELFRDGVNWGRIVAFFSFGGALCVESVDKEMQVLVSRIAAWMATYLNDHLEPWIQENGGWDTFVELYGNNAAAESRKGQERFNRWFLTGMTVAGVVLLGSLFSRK

Take `Fc1cccc(Nc2nc(-c3ccncc3)nc3ccccc23)c1`: the result was inactive.
Regarding `O=C(NCCc1ccccc1)c1ccc2nc(-c3ccco3)c(-c3ccco3)nc2c1`, the inhibition entry was “inactive”.
For the molecule `COc1cc(C2Nc3cccc4cccc(c34)N2)cc(OC)c1O`, the inhibition result was “inactive”.
As for `Fc1ccc(C2=Nc3cccc4cccc(c34)N2)cc1`, the result was inactive.
Take `O=c1[nH]c(SCc2nc3ccccc3c(=O)n2-c2ccccc2C(F)(F)F)nc2ccccc12`: the inhibition entry was “inactive”.
For the molecule `Cc1cc(C)c2nc3nc(C)c(C)cc3c(N)c2c1`, the inhibition entry was “inactive”.
For the molecule `N#Cc1ccc(N=c2ssnc2Cl)cc1`, the inhibition entry was “inactive”.
Still for that read-out and setting: for `S=C(NCCc1ccccc1)NCCc1ccccc1` the value was “inactive”; for `CN1/C(=C\C(=O)Nc2ccc(Cl)cc2)C(C)(C)c2ccccc21`, “inactive”.
For `CCOc1cc(CNc2ccc(N(C)C)cc2)cc(Br)c1OCC(=O)NC(C)(C)C`, the inhibition result was “inactive”.
For `O=[N+]([O-])c1ccc(N/N=C/c2ccc(O)c(O)c2O)c(S(=O)(=O)N2CCOCC2)c1`, the inhibition entry is “inactive”.
In the case of `S=c1[nH]cc(-c2ccccc2)n1-c1ccccc1Cl`, the inhibition entry was “inactive”.
Take `O=C(c1ccc(CNS(=O)(=O)c2ccc(Br)cc2)cc1)N1CCCC1`: the inhibition result is “inactive”.
Same read-out and setting: with `CCOC(=O)C1CCN(C(=O)Nc2ccc3nc(-c4ccco4)c(-c4ccco4)nc3c2)CC1` the entry was “inactive”.
For `Cc1cc(-c2csc(N)n2)c(C)n1C`, the inhibition result is “inactive”.
The same measure, in the same setting: for `CCOc1ccc(C(=O)Nc2nnn(CC)n2)cc1` the value was “inactive”; for `Cc1cc(NC(=O)CCSc2ccccc2)ccc1Br`, “inactive”.
`Cc1ccccc1/C=N/Nc1ccnc2cc(Cl)ccc12`: the inhibition result was “inactive”.
On the same count and under the same terms, for `Cn1c(OCc2cccnc2)nc2c1c(=O)n(Cc1ccccc1)c(=O)n2C` the value was “inactive”.
For the molecule `CCC(=O)OCCNc1cc(Sc2nccn2C)c2nonc2c1[N+](=O)[O-]`, the result was inactive.
Take `Cn1cccc1CC(=O)N/N=C\c1ccccc1`: the result was inactive.
As to `Fc1ccc(C2=Nn3c(Cc4ccccc4F)nnc3SC2)cc1`, the inhibition entry is “inactive”.
`Cc1ccc(S(=O)(=O)N(C)CC(=O)N2CCc3ccccc32)cc1`: the inhibition result is “inactive”.
`O=C(CSc1nc2ccsc2c(=O)n1Cc1ccc(C(=O)O)cc1)NCC1CCCO1` (stereo not drawn): the inhibition entry was “inactive”.
`CNC(=O)CC1C(=O)N(Cc2ccccc2)C(=S)N1NC(=O)c1cccc(F)c1` (stereo not drawn): the outcome was inactive.
`O=C(Nc1ccccn1)c1cc2ccccc2o1`: the inhibition entry was “inactive”.
Turning to `CCOc1ccccc1/C=N/NC(=O)CNC(=O)COc1ccccc1`, the outcome was inactive.
Turning to `COc1cc(/C=C2\SC(=S)NC2=O)ccc1OS(=O)(=O)c1ccccc1`, the inhibition result was “inactive”.
With `COc1ccc(C2CN(C)CC2C(=O)c2ccc(F)cc2)cc1Cl` (stereo not drawn), the result was inactive.
Turning to `Cc1ccc(-c2cc(C(=O)Nc3ccccn3)c3ccccc3n2)o1`, the inhibition entry was “inactive”.
Consider `Fc1ccc(Cn2nnnc2C(c2ccc(Cl)cc2)N2CCSCC2)cc1` (stereo not drawn), for which the inhibition result is “inactive”.
On to `NC(=O)c1c(N)sc2c1CCCCC2`, for which the inhibition entry is “inactive”.
As for `CC1=C2C(CCS2(=O)=O)CC2(C1)C(=O)OC(C)(C)OC2=O` (stereo not drawn), the inhibition entry is “inactive”.
`Cc1ccc(C(=O)N(CCCN(C)C)c2nc3ccc(Cl)cc3s2)cc1C`: the result was inactive.
For the molecule `Cc1ccc(-c2cc(C(=O)Nc3nccs3)c3ccccc3n2)o1`, the inhibition entry was “inactive”.
`CC1Cc2ccccc2N1C(=O)c1ccc(N2CCCC2)c([N+](=O)[O-])c1` (stereo not drawn): the inhibition result is “inactive”.
On the same count and under the same terms, with `Cc1cccc(-n2c(O)c(/C=N/N3CCOCC3)c(=O)[nH]c2=S)c1` the entry was “inactive”; with `CC(C)C(=O)N1CCN(c2ccc([N+](=O)[O-])cc2Cl)CC1`, “inactive”; with `Cc1nc2ccccc2n1CSc1ccccc1`, “inactive”.
With `CCN1/C(=C/c2ccc3cc(C)ccc3[n+]2CC)Sc2cc(C)c(C)cc21`, the inhibition entry is “inactive”.
The same measure, in the same setting: for `COc1cccc(N2CC(C(=O)Nc3nnc(SCC(=O)c4ccccc4)s3)CC2=O)c1` (stereo not drawn) the value was “inactive”; for `Cc1[nH]c2ccccc2c1C(=O)COC(=O)c1c(-c2c(F)cccc2Cl)noc1C`, “inactive”.
Turning to `COc1ccc(Cc2c(O)nc(SC)n(C(C)=O)c2=O)cc1`, the inhibition entry was “inactive”.
For the molecule `COc1ccc2oc(-c3ccccc3)c(C(=O)N3CCOCC3)c2c1`, the inhibition result was “inactive”.
Same read-out and setting: with `CS(=O)(=O)NN1C(=O)c2ccccc2NC1c1cccs1` (stereo not drawn) the entry was “inactive”.
For `CCC(CC)C(=O)Nc1cccc(SC)c1`, the inhibition result is “inactive”.
Consider `C=CCSc1nc(N)c2c(C)c(C)sc2n1`, for which the inhibition result was “inactive”.
Still for that read-out and setting: with `c1ccc(C2=Nc3cccc4cccc(c34)N2)cc1` the entry was “inactive”; with `CN(C)S(=O)(=O)N(CC(=O)Nc1ccccc1C(F)(F)F)c1ccccc1`, “inactive”; with `CC(/C=C/C(=O)c1ccc(C)cc1)=C\c1ccccc1`, “inactive”.
The same measure, in the same setting: with `O=C(C1=NN(c2ccccc2)C2C(=O)N(c3ccccc3)C(=O)C12)c1ccccc1` (stereo not drawn) the entry was “inactive”.
With `COc1ccc(C)cc1Nc1ccc(C(=O)O)cc1[N+](=O)[O-]`, the outcome was inactive.
For the molecule `Cc1ccc(/C=C/C2=Cc3c(sc(NC(=O)CSc4n[nH]c(N)n4)c3C#N)C(C)(C)C2)o1`, the inhibition entry was “inactive”.
Regarding `CC(=O)N1CCN(C(=O)c2ccc(-n3c(C)ccc3C)cc2)CC1`, the inhibition entry was “inactive”.
The same measure, in the same setting: for `CCOc1cc(/C=C2/N=C(C)C(C(=O)OC)=C2O)ccc1O` the value was “inactive”; for `NCC(c1ccccc1)c1c[nH]c2ccccc12` (stereo not drawn), “inactive”.
Consider `COc1cc2[nH]c(=S)nc(NCCCOC(C)C)c2cc1OC`, for which the inhibition entry is “inactive”.
For the molecule `Cc1ccc(/C=C/C(=O)Nc2ccc([N+](=O)[O-])c(NC(=O)/C=C/c3ccc(C)o3)c2)o1`, the inhibition result is “inactive”.
`Clc1ccc2c(N/N=C/c3ccccc3Br)ccnc2c1`: the inhibition result was “inactive”.
Take `S=c1[nH]cc(-c2ccccc2)n1-c1ccccc1`: the inhibition entry is “inactive”.
On the same count and under the same terms, for `Cc1noc(C)c1CN1C(=O)NC(Cc2ccccc2)(Cc2ccccc2)C1=O` the value was “inactive”; for `Cc1cc(NC(=O)CCCC(=O)N(CC(=O)NC2CCCCC2)c2ccccc2)no1`, “inactive”.
With `CCN(CC)C(=O)COC(=O)c1cc(-c2ccco2)nc2ccccc12`, the result was inactive.
For `CCCCCCn1nc(C(=O)Nc2nc3c(s2)CCCC3)c2ccccc2c1=O`, the inhibition result is “inactive”.
On to `O=C(N/N=C/c1cccc([N+](=O)[O-])c1)c1cccs1`, for which the result was inactive.
Turning to `COc1cc(/C=N/NC(=O)c2ccc([N+](=O)[O-])cc2Cl)cc(Br)c1O`, the inhibition result is “inactive”.
Take `Cc1ccc(C)c(N2CCN(C(=S)Nc3ccc4nc(N5CCN(C)CC5)cc(C)c4c3)CC2)c1`: the inhibition entry was “inactive”.
Turning to `OCCC1CN(Cc2ccc3ncccc3c2)CCN1Cc1ccccc1` (stereo not drawn), the outcome was inactive.
Turning to `Nc1ccc(N2CCCCCC2)cc1`, the inhibition result is “inactive”.
Same read-out and setting: with `CCN1CCN(c2cc(C)c3cc(NC(=S)N4CC(C)CC(C)C4)ccc3n2)CC1` (stereo not drawn) the entry was “inactive”.
In the case of `Cc1ccc(C)n1-c1ccc(N2CCOCC2)cc1`, the inhibition result was “inactive”.
For the molecule `Cc1ccccc1-n1c(SCc2cccc(F)c2)nc2[nH]ncc2c1=O`, the outcome was inactive.
For `CCN(CC)c1ccc(Nc2nc(N3CCOCC3)c3ccccc3n2)cc1`, the inhibition entry is “inactive”.
`COc1cccc(/C=N/Nc2nn3cnnc3c3ccccc23)c1`: the EC50 entry was “inactive”.
With `Cc1cc(C)c[n+](-c2nc3ccccc3nc2C(=C=[N-])C#N)c1`, the inhibition entry is “inactive”.
Consider `O=C(Nc1ccc2nc(-c3ccco3)c(-c3ccco3)nc2c1)N1CCN(c2ccccn2)CC1`, for which the inhibition result is “inactive”.
The same measure, in the same setting: for `CN1CCN(c2ccc(N)cc2)CC1` the value was “inactive”.
Same read-out and setting: for `CCCn1c(SCC(=O)Nc2ccccc2-c2ccccc2)nnc1-c1ccoc1C` the value was “inactive”; for `O=C1NC(=O)C2(Cc3c(nc4ccccn4c3=O)N3CCCCCC32)C(=O)N1Cc1ccccc1` (stereo not drawn), “inactive”.
In the case of `O=C(Cc1ccccc1)N/N=C/c1cccn1-c1ccc([N+](=O)[O-])cc1`, the result was inactive.
As to `COC(=O)c1ccc(-n2nnnc2SCC(=O)Nc2cc(OC)ccc2OC)cc1`, the inhibition result was “inactive”.
Still for that read-out and setting: for `Cc1nnc(Sc2cc(NCCCO)c([N+](=O)[O-])c3nonc23)s1` the value was “inactive”; for `COc1ccc(-n2c(NC(=O)c3ccco3)c(C#N)c3nc4ccccc4nc32)cc1`, “inactive”; for `Cc1cc(-c2cc(-c3ccc(Cl)cc3)nc(N)c2C#N)co1`, “inactive”.
The same measure, in the same setting: with `CCC(=O)OCCNc1cc(Sc2nc3ccccc3[nH]2)c2nonc2c1[N+](=O)[O-]` the entry was “inactive”; with `CCN(CC)c1ccc(NC(=O)c2ccc(=O)[nH]c2)cc1S(=O)(=O)Nc1ccccc1OC`, “inactive”; with `COc1ccc(-n2c(SCC(=O)Nc3ccc(C(=O)O)cc3)nnc2-c2cccs2)cc1`, “inactive”.
Still for that read-out and setting: for `CC1=CC(=O)c2ccccc2C1=O` the value was “inactive”; for `COC(=O)c1c(NC(=O)COc2ncnc3ccccc23)sc(C)c1C`, “inactive”; for `COc1ccc(NC(=O)c2ccc(CN3CCN(c4ccccc4)CC3)cc2)cc1`, “inactive”.
For `O=C1/C(=C\c2ccco2)NC(=S)N1c1ccccc1`, the inhibition result was “inactive”.
Same read-out and setting: for `CCN(CC)c1ccc(-c2nn3c(-c4n[nH]c5c4CCC5)nnc3s2)cc1` the value was “inactive”.
Take `C=CS(=O)(=O)c1sc(Cl)c(N2CCOCC2)c1[N+](=O)[O-]`: the outcome was inactive.
